Type in all cases: cell-based
For test [1], the target named is T1, human cloned CHRM2 receptor (Homo sapiens, UniProt P08172).
T1 construct: expressed in transfected cells; host or cells: CHO-K1 (M2_CHO)
T1 sequence (P08172 1-466): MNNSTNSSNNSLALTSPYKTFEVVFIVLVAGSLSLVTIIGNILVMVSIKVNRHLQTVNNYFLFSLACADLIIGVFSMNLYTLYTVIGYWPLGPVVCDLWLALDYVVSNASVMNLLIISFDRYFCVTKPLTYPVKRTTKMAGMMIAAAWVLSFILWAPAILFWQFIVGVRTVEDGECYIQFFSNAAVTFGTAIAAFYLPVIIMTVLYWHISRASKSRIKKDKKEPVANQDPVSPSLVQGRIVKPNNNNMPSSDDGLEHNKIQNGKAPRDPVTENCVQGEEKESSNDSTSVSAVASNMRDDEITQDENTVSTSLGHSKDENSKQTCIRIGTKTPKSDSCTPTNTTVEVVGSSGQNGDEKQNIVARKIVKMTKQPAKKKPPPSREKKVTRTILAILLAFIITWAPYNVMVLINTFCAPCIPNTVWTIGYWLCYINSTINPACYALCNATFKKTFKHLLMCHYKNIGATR
The test can be described thus: CHRM2 Ca++ Flux Assay (M2_CHO cells, agonist mode). As to conditions: M2 CHO cells; for EC50: agonist mode, geometric mean if tested more than once, read-out: M2 FDSS EC50; for Emax: read-out: M2 FDSS PA %. As for the experimental part: (§1) The above examples were characterized by measuring the intracellular mobilization of Ca^++ ions caused by signaling events mediated by the receptor. The Intra-cellular Calcium flux levels were captured by the highly sensitive Ca^++ indicator, Calcium Assay Kit (BD Biosciences; Catalog Number 640178. The fluorescent activity from all receptors were monitored by the fluorescent imager, FDSS 7000EX (Hamamatsu) over a span of 3 minutes. The change in Calcium flux was readily captured upon activation with the muscarinic orthosteric agonist, Carbachol.
(§2) CHO-K1 cells stably expressing the human cloned CHRM2 receptor (M2_CHO cells) were grown and maintained in a monolayer culture with F12/HAM (Life Technologies) supplemented with 10% Fetal Bovine Serum, 1×Pen-Strep, and 0.4 mg/mL Geneticin in a humidified atmosphere (5% CO2) at 37° C. The cultures were grown to 80-90% confluency in T150 flasks (Corning) and washed with 1×DPBS and lifted with 0.05% Trypsin (Life Technologies). The cells were then spun (1K rpm, 3 minutes) and frozen using Recovery Cell Culture Freezing Media (Gibco Technologies). Cells were stored in liquid nitrogen and thawed a day before the assay.
Prior to the day of the assay, stable M2 CHO cells were thawed and plated on Greiner 384 well TC treated plate at a density of 12K cells/well and kept overnight in a humidified atmosphere (5% CO2) at 37° C. The following day, the cells were loaded with Ca^++ dye (BD Biosciences) using Loading Buffer (HBSS +Ca/+Mg, 20 mM HEPES, 2.5 mM Probenecid) and placed back in cell incubator for a minimum of 1 hour and maximum of 2 hours. After incubation, the dye was replaced with Assay Buffer (HBSS −Ca/−Mg, 20 mM HEPES, 2.5 mM Probenecid) supplemented with 20 μM ATP (Sigma Aldrich) and kept at room temperature for 60 minutes prior before running on cell imager. The FDSS 7000EX (Hamamatsu) was used to acquire Ca^++ traces from cells in response to compound treatment and the data was used to generate dose response curves in agonist mode. All compounds were serially diluted in DMSO then prepared in Assay Buffer for Ca^−+ flux studies. The dose response curves were generated from the average of triplicate wells obtained from each data point and used a non-linear regression of four parameter dose response algorithm. The Percent Activity (PA) was measured to EC100 of Carbachol.
(§3) If an Example was tested more than once in an assay, then the values below represent the geometric mean of the results from each independent experiment.

In test [2] the target is T2, human cloned CHRM5 receptor (Homo sapiens, UniProt P08912).
T2 construct: expressed in transfected cells; host or cells: CHO (M5_CHO)
T2 sequence (P08912 1-532): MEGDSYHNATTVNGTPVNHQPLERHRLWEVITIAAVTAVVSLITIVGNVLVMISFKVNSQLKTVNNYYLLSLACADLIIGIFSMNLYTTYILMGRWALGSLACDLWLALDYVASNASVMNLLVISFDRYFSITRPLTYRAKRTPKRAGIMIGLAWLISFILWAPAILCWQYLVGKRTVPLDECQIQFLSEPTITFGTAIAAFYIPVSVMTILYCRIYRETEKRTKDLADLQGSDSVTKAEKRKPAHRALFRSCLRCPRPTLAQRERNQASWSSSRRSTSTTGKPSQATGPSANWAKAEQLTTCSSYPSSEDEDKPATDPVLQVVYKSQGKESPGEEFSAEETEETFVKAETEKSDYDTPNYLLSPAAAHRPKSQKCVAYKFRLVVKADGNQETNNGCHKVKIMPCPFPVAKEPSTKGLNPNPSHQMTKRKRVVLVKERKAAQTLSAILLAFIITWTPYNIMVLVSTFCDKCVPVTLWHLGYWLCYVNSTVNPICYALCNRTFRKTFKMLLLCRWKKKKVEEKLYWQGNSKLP
The test can be described thus: CHRM5 Ca++ Flux Assay (M5_CHO cells, agonist mode). The conditions noted are these: for Emax: read-out: M5 FDSS PA %; for EC50: agonist mode, geometric mean if tested more than once, read-out: M5 FDSS EC50. As for the experimental part:
as §1
as §2, with “CHRM3” for “CHRM2”, “(M3_CHO” for “(M2_CHO”, “IX Pen-Strep,” for “1×Pen-Strep,”, “assay. A similar procedure was used for cells stably expressing the human cloned CHRM5 receptor (M5_CHO).” for “assay.”
(§4) Prior to the day of the assay, stable M3_CHO or M5_CHO cells were thawed and plated on Greiner 384 well black TC treated plates at 12K cells/well in F12/DMEM supplemented with 10% FBS (Hyclone) and kept overnight in a humidified atmosphere (5% CO2) at 37° C. The next day, cells were loaded with Ca^++ dye (BD Biosciences) using Loading Buffer (HBSS +Ca/+Mg, 20 mM HEPES, 2.5 mM Probenecid) and placed back in cell incubator for a minimum of 1 hour. After incubation, the dye was replaced with Assay Buffer (HBSS −Ca/−Mg, 20 mM HEPES, 2.5 mM Probenecid) and kept at room temperature in the dark before running on cell imager. The FDSS 7000EX (Hamamatsu) was used to acquire Ca^+− traces from cells treated with 11 point dose response of compounds in triplicate in order to generate dose response curves in agonist mode. All compounds were serially diluted in DMSO then prepared in Assay Buffer for Ca^++ flux studies. The dose response curves were generated from the average of triplicate wells obtained from each data point and used a non-linear regression of four parameter dose response algorithm. The Percent Activity (PA) was measured to EC100 of Carbachol.
as §3

Test [3] addresses T3, human cloned CHRM3 receptor (Homo sapiens, UniProt P20309).
T3 construct: expressed in transfected cells; host or cells: CHO-K1 (M3_CHO)
As to the kind of experiment: CHRM3 Ca++ Flux Assay (M3_CHO cells, agonist mode). The conditions noted are these: for Emax: read-out: M3 FDSS PA %; for EC50: agonist mode, geometric mean if tested more than once, read-out: M3 FDSS EC50. On the procedure: as §1
as §2, with “CHRM3” for “CHRM2”, “(M3_CHO” for “(M2_CHO”, “IX Pen-Strep,” for “1×Pen-Strep,”, “assay. A similar procedure was used for cells stably expressing the human cloned CHRM5 receptor (M5_CHO).” for “assay.”
as §4, §3

Where [4] appears, read: Percent Activity (PA) measured to EC100 of Carbachol.

Counter-ions that a name gives are not always drawn.

T3 sequence (P20309 whole entry): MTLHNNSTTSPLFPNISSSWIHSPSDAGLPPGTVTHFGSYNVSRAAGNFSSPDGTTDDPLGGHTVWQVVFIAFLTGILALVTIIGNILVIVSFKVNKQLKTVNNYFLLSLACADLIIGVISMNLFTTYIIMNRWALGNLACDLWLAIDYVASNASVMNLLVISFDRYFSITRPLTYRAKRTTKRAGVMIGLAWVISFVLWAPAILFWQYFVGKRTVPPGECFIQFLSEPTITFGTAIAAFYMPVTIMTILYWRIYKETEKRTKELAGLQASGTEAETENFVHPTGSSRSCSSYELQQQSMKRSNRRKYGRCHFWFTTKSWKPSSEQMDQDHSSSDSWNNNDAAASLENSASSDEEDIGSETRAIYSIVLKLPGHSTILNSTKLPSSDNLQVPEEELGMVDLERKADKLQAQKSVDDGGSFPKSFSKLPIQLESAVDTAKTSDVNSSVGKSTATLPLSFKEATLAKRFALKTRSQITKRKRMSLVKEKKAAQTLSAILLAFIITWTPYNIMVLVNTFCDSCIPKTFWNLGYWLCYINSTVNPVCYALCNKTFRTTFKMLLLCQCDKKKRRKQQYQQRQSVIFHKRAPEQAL

`Fc1ccc(O[C@@H]2CCOC2)c(C2CCN([C@@H]3COC4(C3)CN(c3ncco3)C4)CC2)c1` [Example 4D, (S)-7-(4-(5-fluoro-2-(((R)-tetrahydrofuran-3-yl)oxy)phenyl)piperidin-1-yl)-2-(oxazol-2-yl)-5-oxa-2-azaspiro[3.4]octane]: the EC50 in test [1], in test [2] and in test [3] was over 25 µM each time. Also, the Emax in test [1] (setting [4]) stood at 17%; in test [2] (setting [4]), 0%; in test [3] (setting [4]) it was 0%.

With `c1ccc(C2CCN([C@@H]3COC4(C3)CN(c3nncs3)C4)CC2)c(OC2COC2)c1` [Example 5Q, (S)-7-(4-(2-(oxetan-3-yloxy)phenyl)piperidin-1-yl)-2-(1,3,4-thiadiazol-2-yl)-5-oxa-2-azaspiro[3.4]octane formate salt], the EC50 in test [1], in test [2] and in test [3] was over 25 µM throughout. The Emax in test [1] (setting [4]), in test [2] (setting [4]) and in test [3] (setting [4]) was 0% throughout.

In the case of `Fc1ccc(C2CCN([C@@H]3COC4(C3)CN(c3ncco3)C4)CC2)c(OC2COC2)c1` [Example 4S, (S)-7-(4-(4-fluoro-2-(oxetan-3-yloxy)phenyl)piperidin-1-yl)-2-(oxazol-2-yl)-5-oxa-2-azaspiro[3.4]octane], the half-maximal effective concentration (EC50) in test [1], in test [2] and in test [3] was over 25 µM throughout. Further, the Emax in test [1] (setting [4]) was found to be 31%; in test [2] (setting [4]), 0%; in test [3] (setting [4]), 0%.

Regarding `Fc1ccc(O[C@H]2CCOC2)c(C2CCN([C@@H]3COC4(C3)CN(c3nncs3)C4)CC2)c1` [Example 5O, (S)-7-(4-(5-fluoro-2-(((S)-tetrahydrofuran-3-yl)oxy)phenyl)piperidin-1-yl)-2-(1,3,4-thiadiazol-2-yl)-5-oxa-2-azaspiro[3.4]octane], the values for the EC50 in test [1], in test [2] and in test [3] were 1.17 µM, over 25 µM and over 25 µM, respectively. Besides, the values for the Emax in test [1] (setting [4]), in test [2] (setting [4]) and in test [3] (setting [4]) were 33%, 0% and 0%, respectively.

On to `Fc1cc(OCC2COC2)c(C2CCN([C@@H]3COC4(C3)CN(c3ncco3)C4)CC2)cc1F` [Example 4O, (S)-7-(4-(4,5-difluoro-2-(oxetan-3-ylmethoxy)phenyl)piperidin-1-yl)-2-(oxazol-2-yl)-5-oxa-2-azaspiro[3.4]octane], for which the 50% effective concentration (EC50) in test [1] was 12.7 µM; in test [2], over 25 µM; in test [3] it was over 25 µM. The Emax in test [1] (setting [4]) is 31%; in test [2] (setting [4]) it was 0%; in test [3] (setting [4]) it was 0%.

For `Fc1ccc(C2CCOCC2)c(C2CCN([C@@H]3COC4(C3)CN(c3nnco3)C4)CC2)c1` [Example 3D, (S)-7-(4-(5-fluoro-2-(tetrahydro-2H-pyran-4-yl)phenyl)piperidin-1-yl)-2-(1,3,4-oxadiazol-2-yl)-5-oxa-2-azaspiro[3.4]octane], the figures for the EC50 in test [1], in test [2] and in test [3] were 1.92 µM, over 25 µM and over 25 µM, respectively. For the same compound, the Emax is 48% in test [1] (setting [4]), 0% in test [2] (setting [4]) and 0% in test [3] (setting [4]).

`Fc1ccc(OC2CCOCC2)c(C2CCN([C@@H]3COC4(C3)CN(c3nncs3)C4)CC2)c1` [Example 5J, (S)-7-(4-(5-fluoro-2-((tetrahydro-2H-pyran-4-yl)oxy)phenyl)piperidin-1-yl)-2-(1,3,4-thiadiazol-2-yl)-5-oxa-2-azaspiro[3.4]octane]: the EC50 is 4.75 µM in test [1], over 25 µM in test [2] and over 25 µM in test [3]. Besides, the Emax in test [1] (setting [4]) is 46%; in test [2] (setting [4]), 0%; in test [3] (setting [4]), 0%.

`CC1(C)C[C@@H](Oc2ccc(F)cc2C2CCN([C@@H]3COC4(C3)CN(c3nnco3)C4)CC2)CO1` (single isomer, unassigned) [Example 2N, (S)-7-(4-(2-(((R)-5,5-dimethyltetrahydrofuran-3-yl)oxy)-5-fluorophenyl)piperidin-1-yl)-2-(1,3,4-oxadiazol-2-yl)-5-oxa-2-azaspiro[3.4]octane or (S)-7-(4-(2-(((S)-5,5-dimethyltetrahydrofuran-3-yl)oxy)-5-fluorophenyl)piperidin-1-yl)-2-(1,3,4-oxadiazol-2-yl)-5-oxa-2-azaspiro[3.4]octane]: the EC50 in test [1] is 4.24 µM; in test [2], over 25 µM; in test [3], over 25 µM. For the same compound, the “M2 FDSS PA %” value in test [1] (setting [4]) came out at 20%. Besides, the “M5 FDSS PA %” value in test [2] (setting [4]) was determined as 0%. Moreover, in test [3] (setting [4]), the “M3 FDSS PA %” value is reported as 0%.

The record behind these values is US11485742B2, “2-azaspiro[3.4]octane derivatives as M4 agonists” (NOVARTIS AG, priority 2019, dated 2022).
